From patent US20020137929A1, “1 - (3-heterocyclylphenyl) isothiourea, -isourea, -guanidine and -amidine herbicidal agents” (Intellectual Property Department, BASF Aktiengesellschaft, priority 1998, published 2002)

Columns and labels:
[1] = system: ABUTH (Velvetleaf); assay: Preemergence herbicidal evaluation; assay type: in vivo, Abutilon theophrasti; settings: preemergence, rated 4-5 weeks after treatment, 0-9 scale
Outline: (§1)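 Scores use a 0–9 visual scale covering stand, vigor, malformation, size and chlorosis relative to controls, rated four to five weeks after treatment. Before emergence, soil-planted seeds were sprayed with compound in aqueous acetone at roughly 0.0156–0.500 kg/ha and held in the greenhouse.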

[2] = system: GLXMAW (Soybean, Williams); assay: Preemergence herbicidal evaluation; assay type: in vivo, Glycine max, (L.) Merr. cv Williams; settings: preemergence, rated 4-5 weeks after treatment, 0-9 scale
Outline: as §1

[3] = system: TRZAWR (Wheat, Winter, cv Riband); assay: Preemergence herbicidal evaluation; assay type: in vivo, Triticum aestivum; settings: preemergence, rated 4-5 weeks after treatment, 0-9 scale
Outline: as §1

[4] = system: SAGPY (Arrowhead (Pygmaea)); assay: Preemergence weed control under flooded paddy conditions; assay type: in vivo, Sagittaria pygmaea; settings: rated 3-4 weeks after treatment
Outline: (§2)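 Herbicidal effect is scored visually on a 0-9 scale against an untreated control, three to four weeks after compounds are pipetted into the flood water (1.5 to 3 cm deep) over seeds planted in silt loam at 0.5 cm depth. Rates: about 0.0313 to 0.500 kg/ha.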

[5] = system: GALAP (Galium); assay: Postemergence herbicidal evaluation; assay type: in vivo, Galium aparine; settings: postemergence
Outline: (§3)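 Visual 0–9 rating versus control (stand, vigor, malformation, size, chlorosis, overall appearance), taken four to five weeks post-spray. Two-week-old seedlings received roughly 0.0156–0.500 kg/ha active in acetone/water (50/50) with 0.5% TWEEN 20 via nozzle at 40 psi.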

[6] = system: AMBEL (Ragweed, Common); assay: Postemergence herbicidal evaluation; assay type: in vivo, Ambrosia artemisifolia; settings: postemergence
Outline: as §3

[7] = system: ZEAMX (Corn, Field); assay: Preemergence herbicidal evaluation; assay type: in vivo, Zea mays; settings: preemergence, rated 4-5 weeks after treatment, 0-9 scale
Outline: as §1

[8] = system: ECHCG (Barnyardgrass); assay: Preemergence herbicidal evaluation; assay type: in vivo, Echinochloa crus-galli; settings: preemergence, rated 4-5 weeks after treatment, 0-9 scale
Outline: as §1

[9] = system: CYPIR (Rice Flatsedge); assay: Postemergence weed control under flooded paddy conditions; assay type: in vivo, Cyperus iria; settings: postemergence weeds, rated 3 to 4 weeks after treatment
Outline: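 Flood-water application, about 0.0313–0.500 kg/ha a.i. in aqueous/acetone 50/50 v/v; water depth 1.5–3 cm throughout. Weeds 3–5 cm, rice 1.5–2.5 leaf. Greenhouse; 0–9 visual rating vs control at 3–4 wk.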

[10] = system: CASOB (Sicklepod); assay: Postemergence herbicidal evaluation; assay type: in vivo, Cassia obtusifolia; settings: postemergence
Outline: as §3

[11] = system: IPOHE (Morningglory, Ivyleaf); assay: Postemergence herbicidal evaluation; assay type: in vivo, Ipomoea hederacea; settings: postemergence
Outline: as §3

[12] = system: IPOHE (Morningglory, Ivyleaf); assay: Preemergence herbicidal evaluation; assay type: in vivo, Ipomoea hederacea; settings: preemergence, rated 4-5 weeks after treatment, 0-9 scale
Outline: as §1

[13] = system: MOOVA (Monochoria); assay: Preemergence weed control under flooded paddy conditions; assay type: in vivo, Monochoria vaginalis; settings: rated 3-4 weeks after treatment
Outline: as §2

[14] = system: CASOB (Sicklepod); assay: Preemergence herbicidal evaluation; assay type: in vivo, Cassia obtusifolia; settings: preemergence, rated 4-5 weeks after treatment, 0-9 scale
Outline: as §1

C=CCN1C(=O)C(CC(=O)OC(C)C(=O)OCC)SC1=Nc1cc(-n2c(=O)ccn(C)c2=O)c(F)cc1Cl [Compound 94, 3-Allyl-2-{{2-chloro-5-[3,6-dihydro-3-methyl-2,6-dioxo-1(2H)-pyrimidinyl]-4-fluorophenyl}imino}-4-oxo-5-thiazolidineacetic acid, ester with ethyl lactate, (R,S)-]
ABUTH rating ([1]; 0.0156 kg/ha): 0.0
ABUTH rating ([1]; 0.0313 kg/ha): 9.0
ABUTH rating ([1]; 0.0625 kg/ha): 9.0
ABUTH rating ([1]; 0.1250 kg/ha): 9.0
ABUTH rating ([1]; 0.2500 kg/ha): 9.0
GLXMAW rating ([2]; 0.0156 kg/ha): 0.0
GLXMAW rating ([2]; 0.0313 kg/ha): 0.0
GLXMAW rating ([2]; 0.0625 kg/ha): 0.0
GLXMAW rating ([2]; 0.1250 kg/ha): 0.0
GLXMAW rating ([2]; 0.2500 kg/ha): 4.0
TRZAWR rating ([3]; 0.0156 kg/ha): 0.0
TRZAWR rating ([3]; 0.0313 kg/ha): 0.0
TRZAWR rating ([3]; 0.0625 kg/ha): 0.0
TRZAWR rating ([3]; 0.1250 kg/ha): 0.0
TRZAWR rating ([3]; 0.2500 kg/ha): 0.0
SAGPY herbicidal effect rating ([4]; 0.0313 kg/ha): 0.0
SAGPY herbicidal effect rating ([4]; 0.0625 kg/ha): 0.0
SAGPY herbicidal effect rating ([4]; 0.1250 kg/ha): 5.0
SAGPY herbicidal effect rating ([4]; 0.2500 kg/ha): 9.0
GALAP herbicidal rating ([5]; rate 0.0158 kg/ha): 3.0
GALAP herbicidal rating ([5]; rate 0.0315 kg/ha): 4.0
GALAP herbicidal rating ([5]; rate 0.0630 kg/ha): 4.0
AMBEL herbicidal rating ([6]; rate 0.0158 kg/ha): 7.0
AMBEL herbicidal rating ([6]; rate 0.0315 kg/ha): 9.0
AMBEL herbicidal rating ([6]; rate 0.0630 kg/ha): 9.0
ZEAMX rating ([7]; 0.0156 kg/ha): 0.0
ZEAMX rating ([7]; 0.0313 kg/ha): 0.0
ZEAMX rating ([7]; 0.0625 kg/ha): 0.0
ZEAMX rating ([7]; 0.1250 kg/ha): 0.0
ZEAMX rating ([7]; 0.2500 kg/ha): 6.0
ECHCG rating ([8]; 0.0156 kg/ha): 0.0
ECHCG rating ([8]; 0.0313 kg/ha): 0.0
ECHCG rating ([8]; 0.0625 kg/ha): 0.0
ECHCG rating ([8]; 0.1250 kg/ha): 0.0
ECHCG rating ([8]; 0.2500 kg/ha): 0.0
Herbicidal rating CYPIR ([9]; Rate 0.0313 kg/ha): 0.0
Herbicidal rating CYPIR ([9]; Rate 0.0625 kg/ha): 3.0
Herbicidal rating CYPIR ([9]; Rate 0.1250 kg/ha): 4.0
Herbicidal rating CYPIR ([9]; Rate 0.2500 kg/ha): 4.0
CASOB herbicidal rating ([10]; rate 0.0158 kg/ha): 0.0
CASOB herbicidal rating ([10]; rate 0.0315 kg/ha): 3.0
CASOB herbicidal rating ([10]; rate 0.0630 kg/ha): 9.0
IPOHE herbicidal rating ([11]; rate 0.0158 kg/ha): 9.0
IPOHE herbicidal rating ([11]; rate 0.0315 kg/ha): 9.0
IPOHE herbicidal rating ([11]; rate 0.0630 kg/ha): 9.0
IPOHE rating ([12]; 0.0156 kg/ha): 0.0
IPOHE rating ([12]; 0.0313 kg/ha): 0.0
IPOHE rating ([12]; 0.0625 kg/ha): 0.0
IPOHE rating ([12]; 0.1250 kg/ha): 9.0
IPOHE rating ([12]; 0.2500 kg/ha): 9.0
MOOVA herbicidal effect rating ([13]; 0.0313 kg/ha): 9.0
MOOVA herbicidal effect rating ([13]; 0.0625 kg/ha): 9.0
MOOVA herbicidal effect rating ([13]; 0.1250 kg/ha): 9.0
MOOVA herbicidal effect rating ([13]; 0.2500 kg/ha): 9.0
CASOB rating ([14]; 0.0156 kg/ha): 0.0
CASOB rating ([14]; 0.0313 kg/ha): 0.0
CASOB rating ([14]; 0.0625 kg/ha): 0.0
CASOB rating ([14]; 0.1250 kg/ha): 0.0
CASOB rating ([14]; 0.2500 kg/ha): 0.0
